# Measured values: US20040018501A1, “Methods and systems for analyzing complex biological systems” (priority 2001, published 2004)
# Assays:
# Type in all cases: cell-based
# [1] = tested on: Saccharomyces cerevisiae wild type strain BY4743; experiment: AF1 yeast metabolite analysis by GC-MS and LC-MS; conditions: for # Compounds perturbed: 2×MIC, two hours
# [2] = tested on: Saccharomyces cerevisiae wild type strain BY4743; experiment: AF1 combined gene expression and metabolite mapping to KEGG reactions and pathways
# From the text: In AF1, two different technologies were utilized: gene expression analysis (for examination of mRNA expression) and metabolite analysis. […] As noted previously, existing metabolic databases may be helpful in practicing the methods and systems of the present invention, but many databases include limitations that make their use in data analysis and pathway mapping less than straightforward. […] This caveat to KEGG makes it difficult to pinpoint the correct pathway when attempting to link a gene to a specific pathway. […] The pathway score indicates how meaningful the mapping is, or how likely it is to be correctly indicative of the pathway involved in the perturbation under examination. The method provides a pathway score based on perturbation levels of genes and/or compounds and the information content of each gene and/or compound in the pathway, i.e., a pathway score indicates the extent to which other pathways are mapped to a gene/compound. […] Degree of perturbation can be calculated, for example, based on a number of standard deviations from a norm, and included in an equation such as the one shown above, so that not only the number of pathways is taken into account, but also accounts for the amount of gene transcript or compound present as compared to a control. […] Of the 676 compounds under consideration, 77 were detected in the AF1 samples. […]
# [3] = tested on: Saccharomyces cerevisiae wild type strain BY4743; experiment: AF1 yeast gene expression analysis (microarray); conditions: p < 0.05, KEGG mapping
# Protocol: Saccharomyces cerevisiae wild type strain BY4743 was purchased from American Type Culture Center (ATCC, Manassas, Va.). The yeast strain was grown in YPD or SD media. […] The cultures started from fresh single colonies were grown in 1.0 ml YPD overnight at 30° C. […] The OD600 was adjusted to 1.0 with YPD media, then 2.0 ml of each was inoculated into three 250 ml flasks, each containing 50 ml of SD media. […] The cells were kept growing for another two hours, then collected by centrifugation at 4000 rpm for 5 minutes at 4° C. Pellets were washed once with ice-cold water, then were lyophilized overnight at 4° C. […] RNA quality was determined using the Bioanalyzer 2100 and the RNA 6000 assay (Agilent Technologies, Palo Alto, Calif.) according to manufacturer's instructions. RNA concentrations were determined spectrophotometrically by measuring the absorption at 260 nm in an Ultrospec 2000 (Pharmacia Biotech, Piscataway, N.J.). […] Labeled cRNAs were evaluated using the RNA 6000 assay on the Agilent Bioanalyzer 2100. Labeled cRNA concentrations were determined spectrophotometrically by measuring the absorption at 260 nm in an Ultrospec 2000 (Pharmacia Biotech, Piscataway, N.J.). […] Each feature was determined from an array's associated pattern file and a detection algorithm. […] Data was evaluated after combining results from fluor reversal replicate hybridizations. […]
structure (smiles),measurement,setting,value
C[C@@H]1[C@H](O)[C@@H](C)/C=C/C=C/C=C/C=C/C=C/C=C/C=C/[C@H](O[C@@H]2O[C@H](C)[C@@H](O)[C@H](N)[C@@H]2O)C[C@@H]2O[C@](O)(C[C@@H](O)C[C@@H](O)[C@H](O)CC[C@@H](O)C[C@@H](O)CC(=O)O[C@H]1C)C[C@H](O)[C@H]2C(=O)O [Amphoteracin B],# Compounds perturbed,[1]; P < 0.05,16
same,# Compounds perturbed,[1]; P < 0.1,21
same,Fold Change of campesterol,[1]; platform GC,0
same,Fold Change of desmosterol,[1]; platform GC,0
same,Fold Change of octadecanoic acid,[1]; platform GC,0.21
same,Fold Change of abscisic acid,[1]; platform LC,0
same,Fold Change of adenosine,[1]; platform LC,0
same,Fold Change of riboflavin,[1]; platform LC,0
same,Fold Change of 4-methylcatechol,[1]; platform nLC,0
same,Fold Change of 5hydroxyLtryptophan,[1]; platform nLC,0
same,Fold Change of 6-benzylaminopurine,[1]; platform nLC,0
same,Fold Change of NacetylDglucosamine,[1]; platform nLC,0
same,Fold Change of NacetylLornithine,[1]; platform nLC,0
same,Fold Change of abscisic acid,[1]; platform nLC,0
same,Fold Change of adenine,[1]; platform nLC,0
same,Fold Change of adenosine,[1]; platform nLC,0
same,Fold Change of anthranilic acid,[1]; platform nLC,0
same,Fold Change of argininosuccinate,[1]; platform nLC,0
same,Fold Change of benzoic acid,[1]; platform nLC,0
same,Fold Change of catechol,[1]; platform nLC,0
same,Fold Change of cinnamic acid,[1]; platform nLC,0
same,Fold Change of citricanoic/itaconi,[1]; platform nLC,0
same,Fold Change of coumaric acid,[1]; platform nLC,0
same,Fold Change of cytosine,[1]; platform nLC,0
same,Fold Change of diaminopimelic acid,[1]; platform nLC,0
same,Fold Change of dihydrofolic acid,[1]; platform nLC,0
same,Fold Change of estrone,[1]; platform nLC,0
same,Fold Change of farnesol,[1]; platform nLC,0
same,Fold Change of folic acid,[1]; platform nLC,0
same,Fold Change of gibberellic,[1]; platform nLC,0
same,Fold Change of glutamine/lysine,[1]; platform nLC,0.07919
same,Fold Change of guanine,[1]; platform nLC,0
same,Fold Change of histidine,[1]; platform nLC,0
same,Fold Change of homogentisic/uric,[1]; platform nLC,0
same,Fold Change of hydrocortisone,[1]; platform nLC,0
same,Fold Change of indole3pyruvic acid,[1]; platform nLC,0
same,Fold Change of jasmonic acid,[1]; platform nLC,0
same,Fold Change of kinetin,[1]; platform nLC,0
same,Fold Change of luteolin,[1]; platform nLC,0
same,Fold Change of malonic acid,[1]; platform nLC,0
same,Fold Change of methionine,[1]; platform nLC,0
same,Fold Change of phenylpyruvic acid,[1]; platform nLC,0
same,Fold Change of phosphoenolpyruvate,[1]; platform nLC,0
same,Fold Change of pinitol,[1]; platform nLC,0
same,Fold Change of porphobilinogen,[1]; platform nLC,0
same,Fold Change of retinoic acid,[1]; platform nLC,0
same,Fold Change of salicylic/HObenzoic,[1]; platform nLC,0
same,Fold Change of shikimic acid,[1]; platform nLC,0
same,Fold Change of sinapinic acid,[1]; platform nLC,0
same,Fold Change of thymine,[1]; platform nLC,0
same,Fold Change of urocanic acid,[1]; platform nLC,0
same,Fold Change of xanthosineDiH2O,[1]; platform nLC,0
same,Fold Change of zeatin,[1]; platform nLC,0
same,Fold Change of 4-aminobenzoic acid,[1]; platform pLC,0
same,Fold Change of 4-methylcatechol,[1]; platform pLC,0
same,Fold Change of 5hydroxyLtryptophan,[1]; platform pLC,0
same,Fold Change of 6benzylaminopurine,[1]; platform pLC,0
same,Fold Change of NacetylDglucosamine,[1]; platform pLC,0
same,Fold Change of NacetylLglutamate,[1]; platform pLC,0
same,Fold Change of allantoic acid,[1]; platform pLC,0
same,Fold Change of anthranilic acid,[1]; platform pLC,0
same,Fold Change of argininosuccinate,[1]; platform pLC,0
same,Fold Change of biotin,[1]; platform pLC,0
same,Fold Change of caffeine,[1]; platform pLC,0
same,Fold Change of citric acid TME,[1]; platform pLC,0
same,Fold Change of cytidine,[1]; platform pLC,0
same,Fold Change of cytosine,[1]; platform pLC,0
same,Fold Change of diaminopimelic acid,[1]; platform pLC,0
same,Fold Change of dihydrofolic acid,[1]; platform pLC,0
same,Fold Change of dipicolinic acid,[1]; platform pLC,0
same,Fold Change of folic acid,[1]; platform pLC,0
same,Fold Change of glucosamine,[1]; platform pLC,0
same,Fold Change of glucosamine6PO4,[1]; platform pLC,0
same,Fold Change of histidine,[1]; platform pLC,0
same,Fold Change of hydrocortisone,[1]; platform pLC,0
same,Fold Change of itaconic acid dimes,[1]; platform pLC,0
same,Fold Change of kinetin,[1]; platform pLC,0
same,Fold Change of luteolin,[1]; platform pLC,0
same,Fold Change of niacinamide,[1]; platform pLC,0
same,Fold Change of nopaline,[1]; platform pLC,0
same,Fold Change of phosphoenolpyruvate,[1]; platform pLC,0
same,Fold Change of progesterone,[1]; platform pLC,0
same,Fold Change of sugar-phosphate,[1]; platform pLC,0
same,Fold Change of thiamine,[1]; platform pLC,0
same,Fold Change of thymine,[1]; platform pLC,0
same,Fold Change of tryptophan,[1]; platform pLC,0
same,Fold Change of urocanic acid,[1]; platform pLC,0
same,Fold Change of xanthosine(diH2O),[1]; platform pLC,0
same,Fold Change of zeatin,[1]; platform pLC,0
same,Number of Reactions Having an Enzyme and at Least One Compound Perturbed,[2],54
same,# Pathways Affected by at Least One Gene,[3],97
